Columns and labels:
rat mu opioid receptor = assay: CRE-Luc luciferase reporter assay with forskolin stimulation; type: cell-based; settings: FIG. 3, CRE-Luc
Excerpt: Similarly, a constitutively active rat mu opioid receptor was identified using a reporter construct sensitive to Gαi coupling (see FIG. 3). The response element employed in this assay was the cAMP-response element (CRE), which is sensitive to Gαi mediated changes in intracellular levels of cAMP. Signaling through the rat mu opioid receptor via Gαi inhibits adenylate cyclase, causing a decrease in intracellular cAMP. Therefore, an increase in rat mu opioid receptor signaling induces a decrease in CRE mediated reporter activity.
Prior to the present invention, Gαi-mediated decreases in intracellular cAMP were measured by (1) stimulating cells with forskolin, which causes receptor-independent activation of adenylate cyclase and generates an intracellular pool of cAMP; (2) stimulating the cells with ligand; and (3) measuring the ligand-induced, receptor-dependent Gαi-mediated decrease in the intracellular cAMP pool (e.g., using a radioimmunoassay (e.g., New England Nuclear, Boston, Mass.)). […] The basal (and ligand-induced) level of receptor activity was then measured using a standard luciferase assay (see FIG. 3). Coexpression of the receptor of interest with a luciferase reporter gene construct allows one to measure light emission as a readout for basal signaling.

MC-4 receptor = molecular target: T1, MC-4 receptor (Homo sapiens, UniProt P32245, D146M); assay: SMS-Luc luciferase reporter assay in HEK293 cells; type: cell-based; settings: FIG. 10
T1 construct: expressed in transfected cells; host or cells: HEK293
Description: Briefly, HEK293 cells were cotransfected, as described above, with an expression vector encoding either the wild-type MC-4 receptor or the Asp146Met mutant MC-4 receptor and the reporter construct, SMS-Luc. As a negative control, cells were transfected with SMS-Luc and pcDNA1. Basal and ligand (αMHS) induced activity of the negative control, the wild-type MC-4 receptor, and the Asp146Met mutant MC-4 receptor were measured using the luciferase assay described above.

T1 sequence (P32245 whole entry D146M): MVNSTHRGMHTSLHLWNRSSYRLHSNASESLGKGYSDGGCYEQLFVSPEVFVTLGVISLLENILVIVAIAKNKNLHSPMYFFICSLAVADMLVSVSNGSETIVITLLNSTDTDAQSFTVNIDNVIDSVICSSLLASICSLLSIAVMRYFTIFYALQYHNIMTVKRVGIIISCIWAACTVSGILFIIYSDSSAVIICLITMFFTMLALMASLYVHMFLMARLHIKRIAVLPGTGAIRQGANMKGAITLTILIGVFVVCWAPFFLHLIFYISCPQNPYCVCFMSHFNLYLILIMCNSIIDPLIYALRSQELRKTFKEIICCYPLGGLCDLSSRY

Molecule | effect of agonist stimulation on forskolin induced activity (rat mu opioid receptor) | basal level activity compared to wild-type MC-4 receptor (MC-4 receptor)
C[C@@H](NC(=O)[C@@H](N)Cc1ccc(O)cc1)C(=O)NCC(=O)N(C)[C@@H](Cc1ccccc1)C(=O)NCCO [DAMGO, [D-Ala^2-MePhe^4, Gly-ol^5]enkephalin], reference compound] | decrease in forskolin induced activity | –
Asp146Met mutant MC-4 receptor: melanocortin-4 receptor with Asp146Met substitution in the DRY motif | – | higher basal level activity
